Experimental findings from a melting point compilation (Tetko et al.; mined from patent text by program, amines drawn as free bases though some values may be those of a salt) are described below.

The structures appear in SMILES notation.

Take `C#CCN1CC[C@H](O[Si](C)(C)C(C)(C)C)C1=O`: the melting point lay within 35 to 36 °C.

In turn, `O=C(NCc1cccnc1)c1ccnc(N2CCN(Cc3ccc(F)cc3)C2=O)c1` gave a melting point of 153 to 155 °C.

In turn, `COC(=O)COc1ccc(Cl)cc1CC1CNC(=O)CN(S(=O)(=O)c2ccc(Cl)cc2)C1=O` (centres undefined) registered a melting point of 138 to 140 °C.

Consider `COC(=O)C=C1C(=O)NC(=O)N1C`, for which the melting point came out at 100 °C.

On to `CC(C)CC1(C(CCN2C(=O)c3cccc([N+](=O)[O-])c3C2=O)C(=O)NO)CCN(CCc2ccccc2)C1=O` (centres undefined), for which the melting point was 136 to 138 °C.

`CC(=O)N1CCN(c2cc3c(c(N)c2F)c(=O)c(C(=O)O)cn3C2CC2)CC1C` (centres undefined) registered a melting point of 269 to 271 °C.

`COC(=O)CCON1C(C)(C)CC(OC(=O)c2ccccc2C(=O)OC2CC(C)(C)N(OCCC(=O)OC)C(C)(C)C2)CC1(C)C` showed a melting point of 117 to 118 °C.

Regarding `O=P(O)(c1ccc(S(=O)(=O)c2ccccc2)cc1)c1ccc(S(=O)(=O)c2ccccc2)cc1`, the melting point lay within 155 to 165 °C.

Consider `CCCCc1nc(CO)c(C(=O)O)n1Cc1ccc(-c2ccccc2-c2nnn[nH]2)cc1`, for which the melting point lay in the range of 215 to 217 °C.

The compound `CCCC(=O)N(Cc1ccc(-c2ccccc2-c2nc(=O)s[nH]2)cc1)c1sc(C)cc1C(=O)OC` returned a melting point of 131 to 132 °C.

Compound `Cc1ccc(C(=O)c2c(C)cc(C)cc2OCC(O)CNC(C)(C)C)cc1` (centres undefined) showed a melting point of 116 to 118 °C.

Compound `CN(C)C(=O)CNc1cc(-c2ccccc2)nc(-c2ccc(C(F)(F)F)cc2)n1` yielded a melting point of 178 to 179 °C.

The compound `Brc1ccc(C=Cc2cccc3ccccc23)cc1` returned a melting point of 106 °C.

In turn, `CC(c1ccc(Br)cc1)N(O)C(N)=O` (centres undefined) had a melting point of 138 to 140 °C.

For `O=C1C(=O)c2c(nc3ccccn23)-c2cccc(Br)c21`, the melting point was over 260 °C.

For `O=C(NN1CCN(C(=O)Cl)C1=O)OCc1ccccc1`, the melting point lay in the range of 102 to 105 °C.

`CCCCN(CCCC)CCCOc1ccc(-c2cn3cccc(C)c3n2)c(C)c1` gave a melting point of 78 to 81 °C.

Compound `Cc1nnc(COc2ccc(NC(=O)/C=C/c3cnn(C)c3-c3ccc(F)cc3)cc2)o1` displayed a melting point of 117 to 118 °C.

The compound `CN(C)c1ccc(C(=O)OC2CCN(Cc3ccccc3)CC2)cc1` showed a melting point of 103 °C.

Turning to `COC(=O)CCC(NC(=O)c1cn(C(c2ccccc2)(c2ccccc2)c2ccccc2)c(I)n1)C(=O)OC` (centres undefined), the melting point was in the range of 86 to 88 °C.

Regarding `Brc1ccc(OCCCCCN2CCN(c3nccs3)CC2)cc1`, the melting point fell in the range of 73 to 75 °C.

In turn, `O=C(NCc1ccc(Cl)cc1)c1cn2c3c(cc(CN4CCOCC4)cc3c1=O)OCCC2` yielded a melting point of 195 to 197 °C.

With `COC(=O)CC1C(OC(C)=O)CC(=O)C1C(=O)OC` (centres undefined), the melting point turned out to be 54 °C.

Consider `CN1CCC(OC(c2cccc(O)c2)c2nc3ccccc3s2)CC1` (centres undefined), for which the melting point came to 201 °C.

Turning to `Cc1ncnn1-c1cc(F)ccc1CNC(=O)c1nc2n(c(=O)c1OCc1ccccc1)CCN2C(C)C`, the melting point is 158 to 159 °C.

For `COc1nn(-c2ccc(C)c3c2OC(C)(C)C3)c(=O)o1`, the melting point is 60 to 62 °C.

`COCc1nc2c(C(=O)c3cccnc3Oc3cccc(Cl)c3)ccc(OC)c2[nH]1` had a melting point of 181 to 183 °C.

As to `Cc1ccc(-c2nc3ccccc3[nH]2)cn1`, the melting point was found to be 266 °C.

The compound `CC(=O)NC[C@H]1CN(c2ccc(N3CCC4(CC3)CC4=S=O)c(F)c2)C(=O)O1` yielded a melting point of 78 to 80 °C.

Compound `CCOC(=O)C(NC(=O)NN1CC(=O)NC1=O)c1cccs1` (centres undefined) yielded a melting point of 151 to 155 °C.

Compound `c1ccc(N2CCN(CCc3nc4ccccc4[nH]3)CC2)cc1` yielded a melting point of 201 to 203 °C.

As for `COC(=O)CCCCC(=O)Nc1ccc(C(=O)NN=C2C(=O)Nc3ccc(I)cc32)cc1`, the melting point was determined as 277 °C.

The compound `CONC(=O)Nc1ccc(-c2sc3c(c2CN(C)C(C)c2ccccn2)c(=O)n(-c2ccccn2)c(=O)n3Cc2c(F)cccc2F)cc1` (centres undefined) yielded a melting point of 143 to 144 °C.

Regarding `O=C1NC(=O)C(CC#Cc2ccc(Cl)cc2)(S(=O)(=O)c2ccc(F)cc2)S1` (centres undefined), the melting point lay within 176 to 177 °C.

`CCOC(=O)c1c(Cl)c2cccnc2n(C)c1=O`: the melting point fell in the range of 132 to 135 °C.

Consider `NS(=O)(=O)c1nc2ccc(O)cc2s1`, for which the melting point turned out to be 209 °C.

Compound `COc1ccc(C(O)CNC(C)Cc2ccc(OCCO)cc2)cc1F` (centres undefined) registered a melting point of 112 to 115 °C.

Compound `CCN(c1ccc(C)c2cc(-c3ncc(CN4CCN(C(C)=O)CC4)s3)[nH]c12)S(=O)(=O)c1cccs1` gave a melting point of 157 to 158 °C.

The compound `COc1ccc2cc3c(Cl)n[nH]c3nc2c1` returned a melting point of 296 to 297 °C.

`CCOC(Cn1nc(CC(=O)OC)c2ccccc2c1=O)OCC`: the melting point was 68 °C.

The compound `Cn1c(C(N)=O)c(-c2ccc(NC(=O)Nc3cc(C(F)(F)F)ccc3F)cc2)c2ccccc21` showed a melting point of over 260 °C.

`O=C(NN=Cc1ccc([N+](=O)[O-])o1)c1ncn2ccccc12` had a melting point of 300 °C.

In turn, `CC(C)(C)Nc1cc(NC(C)(C)C)nc(N2CCNCC2)n1` returned a melting point of 135 to 138 °C.

Regarding `N#Cc1cccc(Br)c1N`, the melting point was in the range of 119 to 120 °C.

The compound `CC1CCc2ccc3ccccc3c2C1=O` (centres undefined) returned a melting point of 61 to 63 °C.

Turning to `O=C(NCCCCCOc1ccc(-n2ccnc2)cc1)c1ccc(Br)cc1`, the melting point is 150 to 151 °C.

With `CCCCOc1c(CNC(=O)OC(C)(C)C)n(CC2CC2)c(=O)c2ccc(Br)cc12`, the melting point is 118 to 119 °C.

Turning to `O=C(NCc1ccccc1Cl)c1cccnc1Oc1ccc(F)cc1F`, the melting point lay within 122 to 124 °C.

`CCCC(=O)NNC(=O)c1ccncc1`: the melting point was found to be 142 °C.

As to `OC(c1ccc(Cl)cc1)(c1ccc(Cl)cc1)c1nccn1COCc1ccccc1`, the melting point is 139 to 141 °C.

As to `N#Cc1cnn(-c2cc(Cl)c(Cl)c(Cl)c2Cl)c1N`, the melting point is 168 to 169 °C.

`Fc1ccc(-c2cc(-c3ccccc3)c3cc(Cl)ccc3n2)cc1`: the melting point is 141 to 142 °C.

Compound `CC1(CC(=O)O)CCCCCC1=O` (centres undefined) came in with a melting point of 43 to 45 °C.

As to `CSc1ccc(-c2csc3ccc(-c4nnc(C)o4)cc23)cc1`, the melting point is 198 to 199 °C.

In turn, `CC1=C(C#N)C(=C(C#N)C#N)OC1(C)c1ccc(Cl)c(Cl)c1` (centres undefined) gave a melting point of 226 to 229 °C.

For the compound `Cn1nc(O)cc1C(F)(F)C(F)(F)F`, the melting point was in the range of 119 to 124 °C.

`CC(C)c1cc(-c2ccccn2)c(-c2ccc(F)cc2)n1CCC=O`: the melting point is 120 to 122 °C.

As for `CCOP(=O)(Cc1ccnc(C(N)=O)c1)OCC`, the melting point is 140 to 142 °C.

In turn, `CC(=O)Nc1ccc(-c2nc(=O)c3ccccc3s2)cc1` had a melting point of 231 to 232 °C.

As for `O=C(Nc1ccc(F)cc1)NN1CCN(C(=O)Cn2c(=O)sc3ccc(Cl)cc32)CC1`, the melting point was over 250 °C.

In the case of `CCCC1(C)C(C#N)C(=O)NC(=O)C1C#N` (centres undefined), the melting point lay in the range of 204 to 205 °C.

As for `Cc1nc(-c2ccccn2)n2cn[nH]c(=O)c12`, the melting point is 295 to 297 °C.

`COc1cc(-c2nc3ccccc3n2Cc2ccc(Cl)cc2)cc(OC)c1OC` gave a melting point of 169 °C.

Consider `CS(=O)(=O)OCC(CC1CCCCC1)c1ccc(Cl)cc1Cl` (centres undefined), for which the melting point amounted to 105 °C.

As for `CC(C)C(=O)Nc1cc([N+](=O)[O-])c(Sc2cccc3cnccc23)cc1N`, the melting point is 219 to 221 °C.

The compound `Nc1ncnc2c1c(-c1ccc(Oc3ccccc3)cc1)cn2[C@H]1CC[C@@H](N2CCCC2)CC1` came in with a melting point of 101 to 104 °C.

As for `O=C(CBr)Nc1ccccc1C(=O)O`, the melting point is 165 to 168 °C.

For the compound `O=S(=O)(Cl)c1ccc(-c2ccc(C(F)(F)F)cc2)s1`, the melting point was in the range of 73 to 75 °C.

As for `Oc1c(F)cc2c(c1F)CC(n1cc[nH]c1=S)CC2` (centres undefined), the melting point lay in the range of 258 to 260 °C.

Turning to `CC(=O)OC1=CC2=CCC3C(CCC4(C)C(OC(C)=O)CCC34)C2CC1` (centres undefined), the melting point lay within 165 to 171 °C.

Regarding `CCCCCCCCCCCCCCCCOc1ccc(OCC(=O)NCCc2ccccn2)cc1`, the melting point is 74 to 75 °C.

`CCc1cc2c(s1)SCCc1cc(=O)[nH]nc1-2` displayed a melting point of 256 to 258 °C.

The compound `O=C(O)CN(CC(=O)O)CC(=O)Nc1c(F)c(F)c(F)c(F)c1F` gave a melting point of 182 to 183 °C.

As to `CC(C)Nc1ccccc1C(=O)O`, the melting point was in the range of 109 to 110 °C.

For the compound `O=C(O)c1ccc(CNc2nc(-c3cccnc3)nc3ccccc23)cc1`, the melting point lay in the range of 285 to 294 °C.

In turn, `CCCc1c(OCC(O)COc2ccc3c(=O)cc(C(=O)O)sc3c2CCC)ccc(C(C)=O)c1O` (centres undefined) displayed a melting point of 280 to 281 °C.

With `C#Cc1cc2c(Nc3ccc4[nH]ccc4c3)ncnc2cc1OC`, the melting point worked out at 176 °C.

The compound `CCCC(=O)c1sc(NC(=O)c2ccncc2)nc1-c1ccco1` registered a melting point of 191 to 194 °C.

In turn, `CC(C)S(=O)(=O)c1cccc(-c2nc(=O)c3ccccc3s2)n1` came in with a melting point of 205 to 206 °C.

`Cn1cccc1-c1nc2cc(Cl)cc(CCc3ccccn3)c2o1` showed a melting point of 100 to 101 °C.

The compound `COc1cc2c(Nc3ccc(C)c(O)c3)ncnc2cc1OCc1ccncn1` displayed a melting point of 290 to 291 °C.

As to `O=C1CCC(C(=O)NCc2cccc3ccccc23)c2ccccc21` (centres undefined), the melting point fell in the range of 155 to 156 °C.

With `O=C(O)C(=O)CC(=O)c1ccc(OCc2ccccc2)cc1OCc1ccccc1`, the melting point lay within 160 to 164 °C.

In turn, `COC1=CC(=O)C(O)=C(CCCCCCCC2OC2CCCCCCCC2=C(O)C(=O)C=C(OC)C2=O)C1=O` (centres undefined) had a melting point of 134 to 136 °C.

In turn, `CNC(=S)C1=C(O)C(COC)(COC)Oc2ccc([N+](=O)[O-])cc21` came in with a melting point of 97 to 101 °C.

Compound `CS(=O)c1ccc(C2ON2S(=O)(=O)c2ccccc2)cc1` (centres undefined) showed a melting point of 115 to 118 °C.

`c1cc2c(c(OCC3CO3)c1)CC1OC1C2` (centres undefined): the melting point lay within 85 to 87 °C.

`CN1CCc2c(Cl)c(O)c(O)c(Sc3ccccc3)c2CC1` gave a melting point of 173 to 174 °C.

Compound `O=C(Nc1cccc2c1C(=O)c1c-2n[nH]c1-c1ccc(C(=O)NC2CCNCC2)s1)NN1CCOCC1` yielded a melting point of 224 to 226 °C.
